Assay results published in patent publication US9402878B2, “Depsipeptide and uses thereof” (priority 2012, dated 2016).
Values after ≈ are worked out from the molar mass of the structure shown.

What was measured:
[1] = test system: Staphylococcus epidermidis; assay: MIC against contemporary clinical isolates; conditions: for MIC50 / MIC90: Staphylococcus epidermidis; for % S (CLSI % susceptible) / MIC Range: n = 20
Streptococcus pneumoniae = assay: MIC against contemporary clinical isolates; conditions: for MIC50 / MIC90: Streptococcus pneumoniae, PRSP; for MIC Range / % S (CLSI % susceptible): n = 20, 28.6% PSSP, 33.3% PISP, 38.1% PRSP
Enterococcus faecalis = assay: MIC against contemporary clinical isolates; conditions: for % S (CLSI % susceptible) / MIC Range: n = 10, 50% VRE
[2] = test system: Staphylococcus aureus MRSA; assay: MIC against contemporary clinical isolates; conditions: for % S (CLSI % susceptible) / MIC Range: MRSA (n = 20); for MIC50 / MIC90: Staphylococcus aureus, MRSA
[3] = test system: Staphylococcus aureus Daptomycin^NS; assay: MIC against contemporary clinical isolates; conditions: Daptomycin^NS (n = 5)
Enterococcus faecium = assay: MIC against contemporary clinical isolates; conditions: for % S (CLSI % susceptible) / MIC Range: n = 10, 50% VRE
[4] = test system: Staphylococcus aureus Linezolid^R; assay: MIC against contemporary clinical isolates; conditions: Linezolid^R (n = 5)
[5] = test system: Staphylococcus aureus MSSA; assay: MIC against contemporary clinical isolates; conditions: for % S (CLSI % susceptible) / MIC Range: MSSA (n = 20); for MIC50 / MIC90: Staphylococcus aureus, MSSA
Streptococcus agalactiae = assay: MIC against contemporary clinical isolates; conditions: for MIC50 / MIC90: Streptococcus agalactiae; for % S (CLSI % susceptible) / MIC Range: n = 10
Streptococcus pyogenes = assay: MIC against contemporary clinical isolates; conditions: for MIC50 / MIC90: Streptococcus pyogenes; for % S (CLSI % susceptible) / MIC Range: n = 10
[6] = test system: Viridans Group Streptococci; assay: MIC against contemporary clinical isolates; conditions: n = 5
[7] = test system: Staphylococcus aureus VISA; assay: MIC against contemporary clinical isolates; conditions: for MIC50 / MIC90: Staphylococcus aureus, VISA; for % S (CLSI % susceptible) / MIC Range: VISA (n = 10)
[8] = test system: S. aureus MRSA ATCC 33591; assay: Mouse septicemia protection assay; format: in vivo; conditions: CD-1 female mice, IV, QD single dose one hour post infection, survival after 48 hrs
Protocol: CD-1 female mice were infected with 0.5 mL of bacterial suspension (3.28×10^7 CFU/mouse) via intraperitoneal injection, a concentration that achieves at least 90% mortality within 48 hours after infection. At one hour post infection, mice were treated with the compound intravenously with single doses and the results are shown in Table 12.

CCCCCCCCCC(=O)N[C@@H](Cc1c[nH]c2ccccc12)C(=O)N[C@H](CC(N)=O)C(=O)N[C@@H](CC(=O)O)C(=O)N[C@@H]1C(=O)NCC(=O)N[C@@H](CCCN)C(=O)N[C@@H](CC(=O)O)C(=O)N[C@H](C)C(=O)N[C@@H](CC(=O)O)C(=O)NCC(=O)N[C@H](CO)C(=O)N[C@@H]([C@H](C)CC(=O)O)C(=O)N[C@@H](CC(=O)c2ccccc2N)C(=O)O[C@@H]1C [Daptomycin]
MIC50 [1]: 0.12 µg/mL (≈ 0.074 µM) | MIC90 [1]: 0.25 µg/mL (≈ 0.154 µM) | % S (CLSI % susceptible) [1]: 100.0% | MIC Range [1]: 0.06 to 0.25 µg/mL | MIC50 (Streptococcus pneumoniae): ≤ 0.03 µg/mL | MIC90 (Streptococcus pneumoniae): ≤ 0.03 µg/mL | MIC Range (Streptococcus pneumoniae): ≦0.03-0.06^ μg/mL | MIC50 (Enterococcus faecalis): 0.25 µg/mL (≈ 0.154 µM) | MIC90 (Enterococcus faecalis): 0.5 µg/mL (≈ 0.309 µM) | % S (CLSI % susceptible) (Enterococcus faecalis): 90.0% | MIC Range (Enterococcus faecalis): 0.12 to 8 µg/mL | % S (CLSI % susceptible) [2]: 100.0% | MIC Range [2]: 0.12 to 0.25 µg/mL | MIC50 [2]: 0.25 µg/mL (≈ 0.154 µM) | MIC90 [2]: 0.25 µg/mL (≈ 0.154 µM) | % S (CLSI % susceptible) [3]: 0.0% | MIC Range [3]: 2 to 8 µg/mL | MIC50 (Enterococcus faecium): 0.5 µg/mL (≈ 0.309 µM) | MIC90 (Enterococcus faecium): 1 µg/mL (≈ 0.617 µM) | % S (CLSI % susceptible) (Enterococcus faecium): 100.0% | MIC Range (Enterococcus faecium): 0.5-1^ μg/mL | % S (CLSI % susceptible) [4]: 100.0% | MIC Range [4]: 0.25 to 0.5 µg/mL | % S (CLSI % susceptible) [5]: 100.0% | MIC Range [5]: 0.12 to 0.25 µg/mL | MIC50 [5]: 0.25 µg/mL (≈ 0.154 µM) | MIC90 [5]: 0.25 µg/mL (≈ 0.154 µM) | MIC50 (Streptococcus agalactiae): 0.12 µg/mL (≈ 0.074 µM) | MIC90 (Streptococcus agalactiae): 0.12 µg/mL (≈ 0.074 µM) | % S (CLSI % susceptible) (Streptococcus agalactiae): 100.0% | MIC Range (Streptococcus agalactiae): 0.06 to 0.25 µg/mL | MIC50 (Streptococcus pyogenes): ≤ 0.03 µg/mL | MIC90 (Streptococcus pyogenes): 0.06 µg/mL (≈ 0.037 µM) | % S (CLSI % susceptible) (Streptococcus pyogenes): 100.0% | MIC Range (Streptococcus pyogenes): ≦0.03-0.06^ μg/mL | % S (CLSI % susceptible) [6]: 100.0% | MIC Range [6]: 0.06 to 0.25 µg/mL | MIC50 [7]: 0.5 µg/mL (≈ 0.309 µM) | MIC90 [7]: 1 µg/mL (≈ 0.617 µM) | % S (CLSI % susceptible) [7]: 100.0% | MIC Range [7]: 0.25 to 1 µg/mL

CN[C@H](CC(C)C)C(=O)N[C@H]1C(=O)N[C@@H](CC(N)=O)C(=O)N[C@H]2C(=O)N[C@H]3C(=O)N[C@H](C(=O)N[C@H](C(=O)O)c4cc(O)cc(O)c4-c4cc3ccc4O)[C@H](O)c3ccc(c(Cl)c3)Oc3cc2cc(c3O[C@@H]2O[C@H](CO)[C@@H](O)[C@H](O)[C@H]2O[C@H]2C[C@](C)(N)[C@H](O)[C@H](C)O2)Oc2ccc(cc2Cl)[C@H]1O [Vancomycin]
MIC50 [1]: 2 µg/mL (≈ 1.38 µM) | MIC90 [1]: 2 µg/mL (≈ 1.38 µM) | % S (CLSI % susceptible) [1]: 100.0% | MIC Range [1]: 1 to 2 µg/mL | MIC50 (Streptococcus pneumoniae): 0.25 µg/mL (≈ 0.173 µM) | MIC90 (Streptococcus pneumoniae): 0.25 µg/mL (≈ 0.173 µM) | % S (CLSI % susceptible) (Streptococcus pneumoniae): 100.0% | MIC Range (Streptococcus pneumoniae): 0.12 to 0.5 µg/mL | MIC50 (Enterococcus faecalis): 1 µg/mL (≈ 0.69 µM) | MIC90 (Enterococcus faecalis): > 32 µg/mL | % S (CLSI % susceptible) (Enterococcus faecalis): 50.0% | % S (CLSI % susceptible) [2]: 100.0% | MIC Range [2]: 0.5-2^ μg/mL | MIC50 [2]: 0.5 µg/mL (≈ 0.345 µM) | MIC90 [2]: 1 µg/mL (≈ 0.69 µM) | PD50 [8]: ~2.75 mg/kg | PD50 ([8]; listed as vancomycin): ~2.75 mg/kg | % S (CLSI % susceptible) [3]: 40.0% | MIC Range [3]: 0.5-8^ μg/mL | MIC50 (Enterococcus faecium): 0.5 µg/mL (≈ 0.345 µM) | MIC90 (Enterococcus faecium): > 32 µg/mL | % S (CLSI % susceptible) (Enterococcus faecium): 50.0% | % S (CLSI % susceptible) [4]: 100.0% | MIC Range [4]: 1 µg/mL (≈ 0.69 µM) | % S (CLSI % susceptible) [5]: 100.0% | MIC Range [5]: 0.5-1^ μg/mL | MIC50 [5]: 0.5 µg/mL (≈ 0.345 µM) | MIC90 [5]: 1 µg/mL (≈ 0.69 µM) | MIC50 (Streptococcus agalactiae): 0.5 µg/mL (≈ 0.345 µM) | MIC90 (Streptococcus agalactiae): 0.5 µg/mL (≈ 0.345 µM) | % S (CLSI % susceptible) (Streptococcus agalactiae): 100.0% | MIC Range (Streptococcus agalactiae): 0.25 to 0.5 µg/mL | MIC50 (Streptococcus pyogenes): 0.25 µg/mL (≈ 0.173 µM) | MIC90 (Streptococcus pyogenes): 0.25 µg/mL (≈ 0.173 µM) | % S (CLSI % susceptible) (Streptococcus pyogenes): 100.0% | MIC Range (Streptococcus pyogenes): 0.25 µg/mL (≈ 0.173 µM) | % S (CLSI % susceptible) [6]: 100.0% | MIC Range [6]: 0.25 to 0.5 µg/mL | MIC50 [7]: 4 µg/mL (≈ 2.76 µM) | MIC90 [7]: 8 µg/mL (≈ 5.52 µM) | % S (CLSI % susceptible) [7]: 10.0% | MIC Range [7]: 1 to 8 µg/mL

CC(=O)NC[C@H]1CN(c2ccc(N3CCOCC3)c(F)c2)C(=O)O1 [Linezolid]
MIC50 [1]: 2 µg/mL (≈ 5.93 µM) | MIC90 [1]: 2 µg/mL (≈ 5.93 µM) | % S (CLSI % susceptible) [1]: 100.0% | MIC Range [1]: 1 to 4 µg/mL | MIC50 (Streptococcus pneumoniae): 1 µg/mL (≈ 2.96 µM) | MIC90 (Streptococcus pneumoniae): 1 µg/mL (≈ 2.96 µM) | % S (CLSI % susceptible) (Streptococcus pneumoniae): 100.0% | MIC Range (Streptococcus pneumoniae): 0.25 to 1 µg/mL | MIC50 (Enterococcus faecalis): 2 µg/mL (≈ 5.93 µM) | MIC90 (Enterococcus faecalis): 2 µg/mL (≈ 5.93 µM) | % S (CLSI % susceptible) (Enterococcus faecalis): 100.0% | MIC Range (Enterococcus faecalis): 1 to 2 µg/mL | % S (CLSI % susceptible) [2]: 100.0% | MIC Range [2]: 2 to 4 µg/mL | MIC50 [2]: 2 µg/mL (≈ 5.93 µM) | MIC90 [2]: 4 µg/mL (≈ 11.9 µM) | % S (CLSI % susceptible) [3]: 80.0% | MIC Range [3]: 1 to 32 µg/mL | MIC50 (Enterococcus faecium): 2 µg/mL (≈ 5.93 µM) | MIC90 (Enterococcus faecium): 2 µg/mL (≈ 5.93 µM) | % S (CLSI % susceptible) (Enterococcus faecium): 100.0% | MIC Range (Enterococcus faecium): 1 to 2 µg/mL | % S (CLSI % susceptible) [4]: 0.0% | % S (CLSI % susceptible) [5]: 100.0% | MIC Range [5]: 2 to 4 µg/mL | MIC50 [5]: 2 µg/mL (≈ 5.93 µM) | MIC90 [5]: 4 µg/mL (≈ 11.9 µM) | MIC50 (Streptococcus agalactiae): 1 µg/mL (≈ 2.96 µM) | MIC90 (Streptococcus agalactiae): 1 µg/mL (≈ 2.96 µM) | % S (CLSI % susceptible) (Streptococcus agalactiae): 100.0% | MIC Range (Streptococcus agalactiae): 0.5-2^ μg/mL | MIC50 (Streptococcus pyogenes): 1 µg/mL (≈ 2.96 µM) | MIC90 (Streptococcus pyogenes): 1 µg/mL (≈ 2.96 µM) | % S (CLSI % susceptible) (Streptococcus pyogenes): 100.0% | MIC Range (Streptococcus pyogenes): 0.5-1^ μg/mL | % S (CLSI % susceptible) [6]: 100.0% | MIC Range [6]: 0.5-1^ μg/mL | MIC50 [7]: 2 µg/mL (≈ 5.93 µM) | MIC90 [7]: 2 µg/mL (≈ 5.93 µM) | % S (CLSI % susceptible) [7]: 100.0% | MIC Range [7]: 1 to 4 µg/mL
